Where two headings read alike, the source gives them in different places.
How the values were obtained:
[1] = assay type: physicochemical; details: 0.1 N HCl 37° C.; for % Oxycodone, % IVA-IVD in hydrolysis mixture: total 1 mg/ml; for Oxycodone in hydrolysis mixture: from isomer IVC tested separately; for Oxycodone in hydrolysis mixture / % Oxycodone, % IVD in hydrolysis mixture / % Oxycodone, % Ketal a, b in hydrolysis mixture / % Oxycodone, % Ketal A, B in hydrolysis mixture / % hydrocodone, % Ketal in hydrolysis mixture / Hydrocodone, 2R,5R ketal in hydrolysis mixture / Hydrocodone, 2S,5S ketal in hydrolysis mixture: 1 mg/ml; for Oxycodone in hydrolysis mixture / % Oxycodone, % IVD in hydrolysis mixture: normalized; for % Oxycodone, % IVD in hydrolysis mixture: isomer IVD tested separately; for % Oxycodone, % Ketal a, b in hydrolysis mixture: mixture of oxycodone 3,5-octanediol ketals; for % Oxycodone, % Ketal A, B in hydrolysis mixture: mixture of oxycodone cis 1,2-cyclohexanedimethanol ketals; for % hydrocodone, % Ketal in hydrolysis mixture: hydrocodone 1,3-propanediol ketal; for Hydrocodone, 2R,5R ketal in hydrolysis mixture: hydrocodone 2R,5R-hexanediol ketal tested separately; for Hydrocodone, 2S,5S ketal in hydrolysis mixture: hydrocodone 2S,5S-hexanediol ketal tested separately
[2] = 5% acetic acid 100° C.; for % Oxycodone, % IVA-IVD in hydrolysis mixture: unreacted oxycodone + four isomers of Formula IV; for % Oxycodone, % IVA-IVD in hydrolysis mixture / % Oxycodone, % Va-Vd in hydrolysis mixture: 1 mg/ml; for % Oxycodone, % Va-Vd in hydrolysis mixture: unreacted oxycodone + four isomers of Formula V
[3] = Hydrolysis in Simulated Gastric Fluid (SGF) at 37° C., LC/MS; details: SGF 37° C.; for Oxycodone, Ketal A-D in hydrolysis mixture: oxycodone 2,4-pentanediol ketal isomers + unreacted oxycodone, 2 mg/nil; for Hydrocodone in hydrolysis mixture: from hydrocodone 2,4-pentanediol ketal isomers, 1 mg/ml
[4] = Hydrolysis in Coca Cola, pH 4 buffer or pH 7 buffer, 3 days; assay type: physicochemical; details: 1 mg/ml; for Hydrolysis to Oxycodone: after 3 days
[5] = Hydrolysis in fresh EDTA stabilized blood plasma at 37° C.; details: mixture of isomers, 1.1 mg, four hour period

SMILES: COc1ccc2c3c1O[C@H]1C(=O)CC[C@@]4(O)[C@@H](C2)N(C)CC[C@]314 [Oxycodone, oxycodone, reference compound]
- % Oxycodone, % IVA-IVD in hydrolysis mixture ([1]; 0 h): 11.4%
- % Oxycodone, % IVA-IVD in hydrolysis mixture ([1]; 0.583 h): 25.5%
- % Oxycodone, % IVA-IVD in hydrolysis mixture ([1]; 1.167 h): 33%
- % Oxycodone, % IVA-IVD in hydrolysis mixture ([1]; 1.75 h): 44%
- % Oxycodone, % IVA-IVD in hydrolysis mixture ([1]; 2.33 h): 47.6%
- % Oxycodone, % IVA-IVD in hydrolysis mixture ([1]; 2.92 h): 50.9%
- % Oxycodone, % IVA-IVD in hydrolysis mixture ([1]; 4 h): 56.8%
- % Oxycodone, % IVA-IVD in hydrolysis mixture ([1]; 6.5 h): 66%
- % Oxycodone, % IVA-IVD in hydrolysis mixture ([1]; 9.75 h): 72.6%
- % Oxycodone, % IVA-IVD in hydrolysis mixture ([1]; 13.75 h): 79.7%
- % Oxycodone, % IVA-IVD in hydrolysis mixture ([1]; 25 h): 86.4%
- Oxycodone in hydrolysis mixture ([1]; 0 h): 1.3
- Oxycodone in hydrolysis mixture ([1]; 0.75 h): 28.5
- Oxycodone in hydrolysis mixture ([1]; 1.5 h): 46
- Oxycodone in hydrolysis mixture ([1]; 3.33 h): 81.2
- Oxycodone in hydrolysis mixture ([1]; 6 h): 95.3
- Oxycodone in hydrolysis mixture ([1]; 8 h): 97.9
- % Oxycodone, % IVD in hydrolysis mixture ([1]; 0 h): 0.8%
- % Oxycodone, % IVD in hydrolysis mixture ([1]; 0.17 h): 26.9%
- % Oxycodone, % IVD in hydrolysis mixture ([1]; 0.33 h): 55.2%
- % Oxycodone, % IVD in hydrolysis mixture ([1]; 1 h): 89.2%
- % Oxycodone, % IVD in hydrolysis mixture ([1]; 2 h): 98%
- % Oxycodone, % Ketal a, b in hydrolysis mixture ([1]; 0 h): 0.3%
- % Oxycodone, % Ketal a, b in hydrolysis mixture ([1]; 0.33 h): 12.1%
- % Oxycodone, % Ketal a, b in hydrolysis mixture ([1]; 1 h): 26.5%
- % Oxycodone, % Ketal a, b in hydrolysis mixture ([1]; 2 h): 40.7%
- % Oxycodone, % Ketal a, b in hydrolysis mixture ([1]; 4 h): 56.1%
- % Oxycodone, % Ketal A, B in hydrolysis mixture ([1]; 0 h): 27.2%
- % Oxycodone, % Ketal A, B in hydrolysis mixture ([1]; 0.56 h): 28.1%
- % Oxycodone, % Ketal A, B in hydrolysis mixture ([1]; 1.25 h): 33.8%
- % Oxycodone, % Ketal A, B in hydrolysis mixture ([1]; 2 h): 37.4%
- % Oxycodone, % Ketal A, B in hydrolysis mixture ([1]; 4.45 h): 56.4%
- % Oxycodone, % IVA-IVD in hydrolysis mixture ([2]; 0 h): 10.3%
- % Oxycodone, % IVA-IVD in hydrolysis mixture ([2]; 0.5 h): 55.8%
- % Oxycodone, % IVA-IVD in hydrolysis mixture ([2]; 1 h): 69.6%
- % Oxycodone, % IVA-IVD in hydrolysis mixture ([2]; 2 h): 83.9%
- % Oxycodone, % IVA-IVD in hydrolysis mixture ([2]; 4.35 h): 87.9%
- % Oxycodone, % IVA-IVD in hydrolysis mixture ([2]; 10 h): 95.2%
- % Oxycodone, % Va-Vd in hydrolysis mixture ([2]; 0 h): 1%
- % Oxycodone, % Va-Vd in hydrolysis mixture ([2]; 0.33 h): 31.8%
- % Oxycodone, % Va-Vd in hydrolysis mixture ([2]; 0.67 h): 46.4%
- % Oxycodone, % Va-Vd in hydrolysis mixture ([2]; 1 h): 56.5%
- % Oxycodone, % Va-Vd in hydrolysis mixture ([2]; 2 h): 72.8%
- % Oxycodone, % Va-Vd in hydrolysis mixture ([2]; 4 h): 85.4%
- Oxycodone, Ketal A-D in hydrolysis mixture ([3]; 0 h): 7.3
- Oxycodone, Ketal A-D in hydrolysis mixture ([3]; 0.58 h): 19.9
- Oxycodone, Ketal A-D in hydrolysis mixture ([3]; 1.25 h): 35.3
- Oxycodone, Ketal A-D in hydrolysis mixture ([3]; 2 h): 43
- Oxycodone, Ketal A-D in hydrolysis mixture ([3]; 3 h): 51
- Oxycodone, Ketal A-D in hydrolysis mixture ([3]; 4 h): 58.7

SMILES: COc1ccc2c3c1O[C@H]1C(=O)CC[C@H]4[C@@H](C2)N(C)CC[C@]314 [Hydrocodone, hydrocodone, reference compound]
- % hydrocodone, % Ketal in hydrolysis mixture ([1]; 0 h): 6.9%
- % hydrocodone, % Ketal in hydrolysis mixture ([1]; 0.57 h): 34.3%
- % hydrocodone, % Ketal in hydrolysis mixture ([1]; 1.25 h): 47.7%
- % hydrocodone, % Ketal in hydrolysis mixture ([1]; 2 h): 58.2%
- % hydrocodone, % Ketal in hydrolysis mixture ([1]; 3 h): 67.8%
- % hydrocodone, % Ketal in hydrolysis mixture ([1]; 4 h): 74.4%
- Hydrocodone, 2R,5R ketal in hydrolysis mixture ([1]; 0 h): 26.1
- Hydrocodone, 2R,5R ketal in hydrolysis mixture ([1]; 0.5 h): 65.4
- Hydrocodone, 2R,5R ketal in hydrolysis mixture ([1]; 1.25 h): 88.6
- Hydrocodone, 2R,5R ketal in hydrolysis mixture ([1]; 2 h): 97.3
- Hydrocodone, 2R,5R ketal in hydrolysis mixture ([1]; 3 h): 100
- Hydrocodone, 2R,5R ketal in hydrolysis mixture ([1]; 4 h): 100
- Hydrocodone, 2S,5S ketal in hydrolysis mixture ([1]; 0 h): 18.02
- Hydrocodone, 2S,5S ketal in hydrolysis mixture ([1]; 0.5 h): 47.82
- Hydrocodone, 2S,5S ketal in hydrolysis mixture ([1]; 1.25 h): 64.89
- Hydrocodone, 2S,5S ketal in hydrolysis mixture ([1]; 2 h): 89.81
- Hydrocodone, 2S,5S ketal in hydrolysis mixture ([1]; 3 h): 95.71
- Hydrocodone, 2S,5S ketal in hydrolysis mixture ([1]; 4 h): 98
- Hydrocodone in hydrolysis mixture ([3]; 0 h): 1
- Hydrocodone in hydrolysis mixture ([3]; 0.58 h): 33.7
- Hydrocodone in hydrolysis mixture ([3]; 1.25 h): 45.9
- Hydrocodone in hydrolysis mixture ([3]; 2 h): 48.1
- Hydrocodone in hydrolysis mixture ([3]; 3 h): 55.1
- Hydrocodone in hydrolysis mixture ([3]; 4 h): 58.3

SMILES: COc1ccc2c3c1O[C@H]1C4(CCC5(O)[C@@H](C2)N(C)CC[C@]315)OC(C)CC(C)O4 (some centres unmarked) [Formula IV, oxycodone 2,4-pentanediol ketal]
- time at which about 50% of the oxycodone is released ([1]; mixture of isomers): about 2.9 hours
- time by which about (almost) 90% oxycodone release occurs ([1]; mixture of isomers): ≤ 25 h
- degree of hydrolysis after 3 days ([4]; Coca Cola, pH 4 buffer, pH 7 buffer): very low degree of hydrolysis
- Hydrolysis to Oxycodone ([4]; Coca Cola, 23° C.): 5%
- Hydrolysis to Oxycodone ([4]; pH 4 Buffer, 37° C.): 4%
- Hydrolysis to Oxycodone ([4]; pH 7 Buffer, 37° C.): 0%
- ketal hydrolyzed to parent opioid in blood plasma [5]: approximately 6%
- time to about 80% hydrolysis to oxycodone ([2]; FIG. 12): about 2 hours
- time to almost completely hydrolyze to oxycodone ([2]; FIG. 12, FIG. 13): about 10 hours

— patent US11091496B2, “Opioid ketal compounds and uses thereof” (priority 2013, dated 2021)
